Publication PMC6114103, “17-DMAG inhibits the multiplication of several Babesia species and Theileria equi on in vitro cultures, and Babesia microti in mice” (International Journal for Parasitology: Drugs and Drug …, 2018)

Experiments:
[1] = introduction, background statement; ref Jilani et al., 2013; cited from earlier work
B. bovis = experiment: effect of 17-DMAG on host erythrocytes: parasite subculture in pretreated bovine RBC; assay type: cell-based, Babesia bovis; conditions: bovine RBC incubated with 1 μM for 3 h, parasitemia 4 days
Method: (§1) Prior to the subculture of parasites, bovine and equine RBC were incubated with 1 μM of 17-DMAG for 3 h. The RBC were washed three times with PBS and mixed with B. bovis and T. equi parasitized RBC to obtain 1% parasitemia (infected RBC). Subsequently, 100 μl of infected RBC was added to 900 μl of complete medium in a 24-well plate. The untreated erythrocytes were used as a control. The parasitemia was monitored daily via microscopy observation of a Giemsa-stained blood smear for 4 days. Furthermore, the effect of 17-DMAG on mice was evaluated using 8-week-old BALB/c mice. Groups 1 and 2, consisting of three mice each, received intraperitoneal injections of 17-DMAG at a concentration of 15 and 30 mg/kg BW, respectively, for 5 days. One group (three mice) remained as an untreated control.

[2] = effect of 17-DMAG on uninfected mice; assay type: in vivo, BALB/c mice
Method: as §1

T. equi = experiment: effect of 17-DMAG on host erythrocytes: parasite subculture in pretreated equine RBC; assay type: cell-based, Theileria equi; conditions: equine RBC incubated with 1 μM for 3 h, parasitemia 4 days
Method: as §1

[3] = tested on: B. microti (Munich strain); experiment: inhibition assay using a B. microti-infected mouse model; assay type: in vivo, BALB/c mice; conditions: 5 consecutive days; for day p.i. on which parasite no longer detected in blood smears via microscopy (parasite clearance): 17-DMAG + DA 15 + 15, 17-DMAG + AV 15 + 10, DA + AV 15 + 10 mg/kg BW
Method: B. microti (Munich strain) was recovered from -80 °C stock in two 6-week female Balb/c mice (Clea, Japan). The parasitemia was monitored every 2 days. […] The inhibitory effect of 17-DMAG was also determined using a B. microti mouse model according to the previous protocol ([Goo et al., 2010]). Briefly, 35 female BALB/c mice aged 8 weeks received an intraperitoneal injection of 1 × 10^7 of B. microti-infected RBC and were divided into seven groups. Another group consisting of five mice was kept uninfected and untreated as a control. The multiplication of B. microti was observed from blood smears after staining with Giemsa using a light microscope. The drug treatment was initiated to all infected mice on day five, after the parasitemia reached approximately 1%, and continue to the total of five consecutive days. Group 1 was treated with 4% DMSO in saline water as a control intraperitoneally. […] The parasitemia was estimated from Giemsa-stained blood smears using microscopy in approximately 5000 RBC. Furthermore, the hematology profiles including RBC, hemoglobin, and hematocrit were measured from 10 μl of mouse blood using an automatic hematology analyzer (Celltac α MEK-6450, Nihon Kohden, Tokyo, Japan). The rate of parasitemia, hematology profiles, and mouse body weight was monitored for 60 days. The experiment was repeated once so each group contained 10 mice. […] Combination index (CI) values for the drug combination were calculated using CompuSyn software ([Chou, 2006]). […] The differences among groups regarding the parasitemia, hematology profiles, and body weight in the B. microti-infected mouse model were analyzed using Student's t-test, available in GraphPad Prism software. The difference was considered significant if P < 0.05.

[4] = 17-DMAG 30, DA 25, AV 20 mg/kg BW

Compound	solubility [1]	multiplication of B. bovis in 17-DMAG-treated RBC versus normal RBC (B. bovis)	mouse body weight ([2]; 15 mg/kg BW intraperitoneal for 5 days)	mouse body weight ([2]; 30 mg/kg BW intraperitoneal for 5 days, day 10 post treatment, not significantly different from control)	multiplication of T. equi in 17-DMAG-treated RBC versus normal RBC (T. equi)	peak parasitemia ([3]; 17-DMAG 30 mg/kg BW intraperitoneal, peak on day 10 p.i., 10 mice) [%]	day p.i. on which parasite no longer detected in blood smears via microscopy (parasite clearance) [3, 4] [day p.i.]	inhibition of the multiplication of B. microti in mice ([3]; 17-DMAG 30, DA 25, AV 20 mg/kg BW, combinations 17-DMAG 15 with DA 15 or AV 10 mg/kg BW)
CO[C@H]1/C=C\C=C(/C)C(=O)NC2=CC(=O)C(NCCN(C)C)=C(C[C@@H](C)C[C@H](OC)[C@H](O)[C@@H](C)/C=C(\C)[C@@H]1OC(N)=O)C2=O [17-DMAG, 17-dimethylaminoethylamino-17-demethoxygeldanamycin]	water soluble	did not significantly differ	did not show any effect	reduced slightly	did not significantly differ	4.7 ± 2.0	36	effectively inhibited
O=C1C(O)=C([C@H]2CC[C@H](c3ccc(Cl)cc3)CC2)C(=O)c2ccccc21 [AV, atovaquone]	–	–	–	–	–	–	≤ 28	–
